Tests used:
Experiment in all cases: relative viability (nuclei count vs DMSO), 5 days (fraction); higher = more cells survive
HCC-827 = tested on: HCC-827
Summary of the method: (§1)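 Lung cancer cell lines in 1536-well plates were dosed by pin tool the day after seeding, either with one drug alone or with a fixed anchor-drug dose plus five library-drug doses (not always all listed) in √10 steps. After 5 days, cells were fixed and their nuclei stained in one step (final 0.05% Triton X-100, 1% formaldehyde, 1 ug/ml Hoechst), then counted on 4× images. Relative viability is the nuclei count in treated wells divided by that in vehicle wells. Values are medians of duplicate plates.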

EPLC-272H = tested on: EPLC-272H
Summary of the method: as §1

NCI-H2342 = tested on: NCI-H2342
Summary of the method: as §1

SW 1573 = tested on: SW 1573
Summary of the method: as §1

EKVX = tested on: EKVX
Summary of the method: as §1

NCI-H647 = tested on: NCI-H647
Summary of the method: as §1

LOU-NH91 = tested on: LOU-NH91
Summary of the method: as §1

NCI-H1975 = tested on: NCI-H1975
Summary of the method: as §1

NCI-H1437 = tested on: NCI-H1437
Summary of the method: as §1

HCC-44 = tested on: HCC-44
Summary of the method: as §1

H3255 = tested on: H3255
Summary of the method: as §1

NCI-H650 = tested on: NCI-H650
Summary of the method: as §1

NCI-H1666 = tested on: NCI-H1666
Summary of the method: as §1

BEN = tested on: BEN
Summary of the method: as §1

NCI-H2087 = tested on: NCI-H2087
Summary of the method: as §1

COR-L 105 = tested on: COR-L 105
Summary of the method: as §1

LU99A = tested on: LU99A
Summary of the method: as §1

NCI-H2085 = tested on: NCI-H2085
Summary of the method: as §1

LCLC-97TM1 = tested on: LCLC-97TM1
Summary of the method: as §1

201T = tested on: 201T
Summary of the method: as §1

NCI-H2170 = tested on: NCI-H2170
Summary of the method: as §1

PC-3 [JPC-3] = tested on: PC-3 [JPC-3]
Summary of the method: as §1

**Q.** What does the source list for COc1nc(C)cnc1NS(=O)(=O)c1cccnc1-c1ccc(-c2nnco2)cc1 [Zibotentan] + CCNC(=O)c1noc(-c2cc(C(C)C)c(O)cc2O)c1-c1ccc(CN2CCOCC2)cc1 [Luminespib] (partner 0.01 µM)?
**A.** relative viability (HCC-827; first compound 0.08 µM): 0.574; relative viability (HCC-827; first compound 0.253 µM): 0.501; relative viability (HCC-827; first compound 0.8 µM): 0.442; relative viability (HCC-827; first compound 2.53 µM): 0.774; relative viability (EPLC-272H; first compound 0.08 µM): 0.234; relative viability (EPLC-272H; first compound 0.253 µM): 0.376; relative viability (EPLC-272H; first compound 0.8 µM): 0.272; relative viability (EPLC-272H; first compound 2.53 µM): 0.254; relative viability (NCI-H2342; first compound 0.08 µM): 0.702; relative viability (NCI-H2342; first compound 0.253 µM): 0.617; relative viability (NCI-H2342; first compound 0.8 µM): 0.652; relative viability (NCI-H2342; first compound 2.53 µM): 0.738; relative viability (SW 1573; first compound 0.08 µM): 0.341; relative viability (SW 1573; first compound 0.8 µM): 0.348; relative viability (SW 1573; first compound 2.53 µM): 0.269; relative viability (EKVX; first compound 0.08 µM): 0.762; relative viability (EKVX; first compound 0.253 µM): 0.88; relative viability (EKVX; first compound 0.8 µM): 0.832; relative viability (EKVX; first compound 2.53 µM): 0.877; relative viability (NCI-H647; first compound 0.08 µM): 0.244; relative viability (NCI-H647; first compound 0.253 µM): 0.16; relative viability (NCI-H647; first compound 0.8 µM): 0.185; relative viability (NCI-H647; first compound 2.53 µM): 0.164; relative viability (LOU-NH91; first compound 0.08 µM): 0.33; relative viability (LOU-NH91; first compound 0.253 µM): 0.315; relative viability (LOU-NH91; first compound 0.8 µM): 0.382; relative viability (LOU-NH91; first compound 2.53 µM): 0.364; relative viability (NCI-H1975; first compound 0.08 µM): 0.305; relative viability (NCI-H1975; first compound 0.253 µM): 0.0756; relative viability (NCI-H1975; first compound 0.8 µM): 0.198; relative viability (NCI-H1975; first compound 2.53 µM): 0.218; relative viability (NCI-H1437; first compound 0.08 µM): 1.15; relative viability (NCI-H1437; first compound 0.253 µM): 0.967; relative viability (NCI-H1437; first compound 0.8 µM): 1.12; relative viability (NCI-H1437; first compound 2.53 µM): 1.15; relative viability (HCC-44; first compound 0.08 µM): 1.63; relative viability (HCC-44; first compound 0.8 µM): 1.07; relative viability (HCC-44; first compound 2.53 µM): 1.08; relative viability (H3255; first compound 0.08 µM): 0.996; relative viability (H3255; first compound 0.253 µM): 0.839; relative viability (H3255; first compound 0.8 µM): 0.899; relative viability (H3255; first compound 2.53 µM): 0.799; relative viability (NCI-H650; first compound 0.08 µM): 0.869; relative viability (NCI-H650; first compound 0.253 µM): 0.667; relative viability (NCI-H650; first compound 0.8 µM): 0.865; relative viability (NCI-H650; first compound 2.53 µM): 0.856; relative viability (NCI-H1666; first compound 0.08 µM): 0.96; relative viability (NCI-H1666; first compound 0.253 µM): 0.905; relative viability (NCI-H1666; first compound 0.8 µM): 1.02; relative viability (NCI-H1666; first compound 2.53 µM): 1.05; relative viability (BEN; first compound 0.08 µM): 0.401; relative viability (BEN; first compound 0.253 µM): 0.356; relative viability (BEN; first compound 0.8 µM): 0.395; relative viability (BEN; first compound 2.53 µM): 0.537; relative viability (NCI-H2087; first compound 0.08 µM): 0.168; relative viability (NCI-H2087; first compound 0.253 µM): 0.171; relative viability (NCI-H2087; first compound 0.8 µM): 0.169; relative viability (NCI-H2087; first compound 2.53 µM): 0.124; relative viability (COR-L 105; first compound 0.08 µM): 0.938; relative viability (COR-L 105; first compound 0.253 µM): 0.693; relative viability (COR-L 105; first compound 0.8 µM): 0.891; relative viability (COR-L 105; first compound 2.53 µM): 0.74; relative viability (LU99A; first compound 0.08 µM): 0.275; relative viability (LU99A; first compound 0.253 µM): 0.242; relative viability (LU99A; first compound 0.8 µM): 0.245; relative viability (LU99A; first compound 2.53 µM): 0.243; relative viability (NCI-H2085; first compound 0.08 µM): 0.386; relative viability (NCI-H2085; first compound 0.253 µM): 0.423; relative viability (NCI-H2085; first compound 0.8 µM): 0.42; relative viability (NCI-H2085; first compound 2.53 µM): 0.463; relative viability (LCLC-97TM1; first compound 0.08 µM): 0.948; relative viability (LCLC-97TM1; first compound 0.253 µM): 0.759; relative viability (LCLC-97TM1; first compound 0.8 µM): 0.927; relative viability (LCLC-97TM1; first compound 2.53 µM): 0.692; relative viability (201T; first compound 0.08 µM): 1.11; relative viability (201T; first compound 0.253 µM): 1.03; relative viability (201T; first compound 0.8 µM): 1.14; relative viability (201T; first compound 2.53 µM): 1.07; relative viability (NCI-H2170; first compound 0.08 µM): 0.397; relative viability (NCI-H2170; first compound 0.253 µM): 0.721; relative viability (NCI-H2170; first compound 0.8 µM): 0.646; relative viability (NCI-H2170; first compound 2.53 µM): 0.691; relative viability (PC-3 [JPC-3]; first compound 0.08 µM): 0.692; relative viability (PC-3 [JPC-3]; first compound 0.253 µM): 0.738; relative viability (PC-3 [JPC-3]; first compound 0.8 µM): 0.774; relative viability (PC-3 [JPC-3]; first compound 2.53 µM): 0.718

— the supplement of paper PMC10307832
